Holding throughout (test): level (log10 ratio to DMSO vehicle control); higher = higher biomarker level / cell amount than vehicle control
What all share (conditions): in DMSO

Compound in assay [1]: OCC(F)(F)OC(F)(F)C(F)(F)OC(F)(F)CO [1H,1H,8H,8H-Perfluoro-3,6-dioxaoctane-1,8-diol]
The procedure: (§1)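 BioMAP Diversity Plus panel of 12 human primary cell co-culture systems (3C, 4H, LPS, SAg, BT, BF4T, BE3C, CASM3C, HDF3CGF, KF3CT, MyoF, Mphg). Compounds were added 1 h before stimulation and left for 24 h (MyoF 48 h; BT 72 h for soluble read-outs or 6 d for IgG). Biomarkers were read by ELISA, cytotoxicity by SRB, PBMC viability and proliferation by Alamar Blue. Each well value was divided by the mean of 8 DMSO control wells on the same plate and log10 transformed; duplicate blinded samples were tested at 4 concentrations.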

Compound in assay [2]: O=C(O)C(F)(F)C(F)(F)F [Perfluoropropanoic acid]
The procedure: as §1

Compound in assay [3]: FC(F)(F)C(F)(F)C(F)(F)C(F)(F)C(F)(F)C(F)(F)I [Perfluoro-1-iodohexane]
The procedure:
as §1

Compound in assay [4]: FC(F)(F)C(F)(F)C(F)(F)C(F)(F)C(F)(F)CCI [1-Iodo-1H,1H,2H,2H-perfluoroheptane]
How it is done: as §1

Compound in assay [5]: OCCC(F)(F)C(F)(F)C(F)(F)C(F)(F)C(F)(F)C(F)(F)F [6:2 Fluorotelomer alcohol]
The procedure: as §1

Compound in assay [6]: O=C(O)C(F)(F)C(F)(F)C(F)(F)F [Perfluorobutanoic acid]
How it is done: as §1

Compound in assay [7]: O=C(O)C(F)(F)OC(F)(F)C(F)(F)OC(F)(F)F [Perfluoro-3,6-dioxaheptanoic acid]
How it is done: as §1

± gives the standard deviation of the averaged measurements.

For CASM3C:CD87/uPAR, the “level (log10)” value in assay [1] (6700 nM) was 0.0135 ± 0.00071; in assay [1] (20000 nM), -0.0085 ± 0.0078; in assay [1] (60000 nM), -0.016 ± 0.0085; in assay [2] (6700 nM) it was -0.0215 ± 0.019; in assay [2] (20000 nM) it was -0.008 ± 0.038; in assay [2] (60000 nM), 0.001 ± 0.013. Further, the “level (log10)” value is 0 ± 0.0085 in assay [3] (6700 nM); -0.0105 ± 0.03 in assay [3] (20000 nM); 0.003 ± 0.021 in assay [3] (60000 nM); 0.008 ± 0.016 in assay [4] (6700 nM); -0.0075 ± 0.0078 in assay [4] (20000 nM); -0.0265 ± 0.037 in assay [4] (60000 nM). The “level (log10)” value is -0.026 ± 0.013 in assay [5] (6700 nM); -0.002 ± 0.0042 in assay [5] (20000 nM); -0.005 ± 0.013 in assay [6] (6700 nM); 0.0095 ± 0.0021 in assay [6] (20000 nM); -0.0085 ± 0.026 in assay [6] (60000 nM); -0.0105 ± 0.043 in assay [7] (6700 nM). In addition, the “level (log10)” value in assay [7] (20000 nM) is 0.022 ± 0.013; in assay [7] (60000 nM) it was -0.006 ± 0.018.

As to CASM3C:CD106/VCAM-1, the “level (log10)” value was 0.0125 ± 0.0078 in assay [1] (6700 nM); -0.005 ± 0.0028 in assay [1] (20000 nM); 0.0015 ± 0.0035 in assay [1] (60000 nM); 0.027 ± 0.025 in assay [2] (6700 nM); 0.0445 ± 0.052 in assay [2] (20000 nM); 0.0445 ± 0.0078 in assay [2] (60000 nM). Besides, the “level (log10)” value in assay [3] (6700 nM) was 0.003 ± 0.017; in assay [3] (20000 nM), -0.003 ± 0.025; in assay [3] (60000 nM), -0.023 ± 0.041; in assay [4] (6700 nM), 0.0215 ± 0.005; in assay [4] (20000 nM), -0.0015 ± 0.0078; in assay [4] (60000 nM), -0.063 ± 0.0014. Further, the “level (log10)” value in assay [5] (6700 nM) was 0.0105 ± 0.018; in assay [5] (20000 nM), 0.017 ± 0.0099; in assay [6] (6700 nM), -0.007 ± 0.016; in assay [6] (20000 nM), -0.006 ± 0.0014; in assay [6] (60000 nM) it was -0.039 ± 0.018; in assay [7] (6700 nM), 0.0345 ± 0.029. The “level (log10)” value in assay [7] (20000 nM) is 0.0105 ± 0.037; in assay [7] (60000 nM) it was -0.06 ± 0.021.

Take CASM3C:CD141/Thrombomodulin: the “level (log10)” value was -0.0045 ± 0.0021 in assay [1] (6700 nM); 0.0035 ± 0.005 in assay [1] (20000 nM); 0.001 ± 0.016 in assay [1] (60000 nM); -0.05 ± 0.031 in assay [2] (6700 nM); 0.024 ± 0.0099 in assay [2] (20000 nM); 0.0245 ± 0.066 in assay [2] (60000 nM). The “level (log10)” value in assay [3] (6700 nM) was 0.0055 ± 0.015; in assay [3] (20000 nM) it was -0.006 ± 0.0028; in assay [3] (60000 nM), -0.004 ± 0.0028; in assay [4] (6700 nM), -0.011 ± 0.0085; in assay [4] (20000 nM), 0.0015 ± 0.012; in assay [4] (60000 nM), 0.0845 ± 0.012. The “level (log10)” value in assay [5] (6700 nM) was 0.0235 ± 0.0092; in assay [5] (20000 nM) it was 0.005 ± 0.023; in assay [6] (6700 nM) it was 0.0145 ± 0.021; in assay [6] (20000 nM), 0.022 ± 0.0028; in assay [6] (60000 nM), -0.0045 ± 0.037; in assay [7] (6700 nM), 0.032 ± 0.0085. Besides, the “level (log10)” value turned out to be 0.019 ± 0.03 in assay [7] (20000 nM) and 0.0295 ± 0.013 in assay [7] (60000 nM).

Regarding CASM3C:CD142/Tissue Factor, the “level (log10)” value was -0.014 ± 0.0099 in assay [1] (6700 nM); -0.013 ± 0.023 in assay [1] (20000 nM); 0.0165 ± 0.0064 in assay [1] (60000 nM); -0.0995 ± 0.039 in assay [2] (6700 nM); -0.0395 ± 0.03 in assay [2] (20000 nM); -0.0085 ± 0.039 in assay [2] (60000 nM). Also, the “level (log10)” value in assay [3] (6700 nM) is -0.009 ± 0.013; in assay [3] (20000 nM) it was -0.018 ± 0.0042; in assay [3] (60000 nM), -0.031; in assay [4] (6700 nM) it was 0.001 ± 0.0085; in assay [4] (20000 nM), -0.0065 ± 0.005; in assay [4] (60000 nM), -0.0295 ± 0.028. In addition, the “level (log10)” value in assay [5] (6700 nM) was 0.004 ± 0.014; in assay [5] (20000 nM), 0.0075 ± 0.0064; in assay [6] (6700 nM), -0.002; in assay [6] (20000 nM), 0.007 ± 0.0099; in assay [6] (60000 nM), -0.0505 ± 0.00071; in assay [7] (6700 nM), -0.049 ± 0.089. Besides, the “level (log10)” value in assay [7] (20000 nM) is -0.0195 ± 0.097; in assay [7] (60000 nM), 0.014 ± 0.088.

With CASM3C:CXCL8/IL-8, the “level (log10)” value in assay [1] (6700 nM) is 0.0045 ± 0.0064; in assay [1] (20000 nM), -0.002 ± 0.0028; in assay [1] (60000 nM) it was 0.0125 ± 0.013; in assay [2] (6700 nM), 0.001 ± 0.011; in assay [2] (20000 nM) it was -0.003 ± 0.023; in assay [2] (60000 nM) it was 0.0185 ± 0.043. In addition, the “level (log10)” value in assay [3] (6700 nM) is 0.0055 ± 0.0092; in assay [3] (20000 nM) it was -0.0005 ± 0.0078; in assay [3] (60000 nM) it was 0.011 ± 0.021; in assay [4] (6700 nM) it was 0.002 ± 0.0028; in assay [4] (20000 nM) it was -0.0025 ± 0.0035; in assay [4] (60000 nM) it was 0.003 ± 0.018. The “level (log10)” value in assay [5] (6700 nM) is 0.019 ± 0.0014; in assay [5] (20000 nM) it was 0.0195 ± 0.015; in assay [6] (6700 nM) it was -0.001 ± 0.013; in assay [6] (20000 nM), -0.0065 ± 0.005; in assay [6] (60000 nM) it was 0.008 ± 0.013; in assay [7] (6700 nM) it was 0.011 ± 0.037. The figures for the “level (log10)” value in assay [7] (20000 nM) and in assay [7] (60000 nM) were 0.018 ± 0.052 and 0.0295 ± 0.039, respectively.

As for CASM3C:CXCL9/MIG, the “level (log10)” value in assay [1] (6700 nM) came out at 0.0055 ± 0.012; in assay [1] (20000 nM), 0.0175 ± 0.011; in assay [1] (60000 nM), 0.0205 ± 0.0035; in assay [2] (6700 nM) it was 0.0125 ± 0.015; in assay [2] (20000 nM), 0.0125 ± 0.012; in assay [2] (60000 nM) it was 0.0255 ± 0.037. Further, the “level (log10)” value is -0.0015 ± 0.0064 in assay [3] (6700 nM); 0.002 ± 0.0028 in assay [3] (20000 nM); -0.0025 ± 0.036 in assay [3] (60000 nM); -0.007 ± 0.0042 in assay [4] (6700 nM); -0.0025 ± 0.0021 in assay [4] (20000 nM); 0.008 ± 0.011 in assay [4] (60000 nM). The “level (log10)” value in assay [5] (6700 nM) is -0.011 ± 0.025; in assay [5] (20000 nM) it was -0.0165 ± 0.0035; in assay [6] (6700 nM) it was 0.001 ± 0.0028; in assay [6] (20000 nM), -0.004 ± 0.0028; in assay [6] (60000 nM) it was 0.007 ± 0.0057; in assay [7] (6700 nM), 0.028 ± 0.058. In addition, the “level (log10)” value in assay [7] (20000 nM) came out at 0.0245 ± 0.083; in assay [7] (60000 nM) it was 0.0415 ± 0.087.

As to CASM3C:HLA-DR, the “level (log10)” value is 0.0315 ± 0.025 in assay [1] (6700 nM); 0.0075 ± 0.011 in assay [1] (20000 nM); 0.0045 ± 0.029 in assay [1] (60000 nM); 0.015 ± 0.023 in assay [2] (6700 nM); -0.013 ± 0.011 in assay [2] (20000 nM); 0.0365 ± 0.0021 in assay [2] (60000 nM). The “level (log10)” value in assay [3] (6700 nM) was 0.0075 ± 0.0092; in assay [3] (20000 nM), 0.004 ± 0.0057; in assay [3] (60000 nM), 0.0095 ± 0.022; in assay [4] (6700 nM) it was -0.006 ± 0.0099; in assay [4] (20000 nM) it was -0.0055 ± 0.0064; in assay [4] (60000 nM), -0.009 ± 0.021. Also, the “level (log10)” value in assay [5] (6700 nM) was 0 ± 0.025; in assay [5] (20000 nM), -0.025 ± 0.023; in assay [6] (6700 nM), 0.012 ± 0.011; in assay [6] (20000 nM) it was 0.0065 ± 0.015; in assay [6] (60000 nM) it was -0.0085 ± 0.018; in assay [7] (6700 nM), -0.0355 ± 0.069. Moreover, the “level (log10)” value in assay [7] (20000 nM) is -0.0385 ± 0.074; in assay [7] (60000 nM) it was -0.047 ± 0.057.
